Data as given in patent US8101550B2, “Anthranilic acid diamide derivative with hetero-aromatic and hetero-cyclic substituents” (Bayer Cropscience AG, priority 2006, dated 2012).

Key:
[1] = log P determination by HPLC on reverse-phase column (EEC Directive 79/831 Annex V.A8); format: physicochemical; conditions: HPLC on reverse-phase column
Method in brief: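 Reverse-phase C18 HPLC at 43 °C, following EEC Directive 79/831 Annex V.A8. Acidic LC-MS used pH 2.7 eluents (0.1% aqueous formic acid and acetonitrile with 0.1% formic acid) on a 10–95% acetonitrile linear gradient. Log P was interpolated linearly from retention times against unbranched C3–C16 alkan-2-ones of known log P.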

[2] = test system: caterpillars of the armyworm (Spodoptera frugiperda); assay: Spodoptera frugiperda test (cabbage leaves, immersion); format: in vivo; conditions: cabbage leaves immersed
Description: (§1) An appropriate preparation of active compound is prepared by mixing 1 part by weight of active compound with the stated amounts of solvent and emulsifier and diluting the concentrate with emulsifier-containing water to the desired concentration.
Cabbage leaves (Brassica oleracea) are treated by immersion into a preparation of active compound at the desired concentration and, are populated with caterpillars of the armyworm (Spodoptera frugiperda) while the leaves are still wet.
After the desired time the effect in % is determined. 100% means that all of the caterpillars have been killed; 0% means that no caterpillars have been killed.
Cabbage leaves (Brassica oleracea) are treated by immersion into a preparation of active compound at the desired concentration and are populated with caterpillars of the armyworm (Spodoptera frugiperda) while the leaves are still wet.

[3] = test system: larvae of the leafminer fly (Liriomyza trifolii); assay: Liriomyza trifolii test; format: in vivo; conditions: 500 ppm; infested bean leaf discs sprayed
Description: as §1
Bean leaf discs (Phaseolus vulgaris) infested by larvae of the leafminer fly (Liriomyza trifolii) are sprayed with a preparation of active compound at the desired concentration.
After the desired time the effect in % is determined. 100% means that all of the leafminer flies have been killed; 0% means that no leafminer flies have been killed.

Myzus persicae = Myzus persicae test; format: in vivo; conditions: 30 ppm; preparation provided for consumption
Description: (§2) An appropriate preparation of active compound is prepared by mixing the active compound with the stated amounts of solvent and diluting the concentrate with […] water to the desired concentration.
The Myzus persicae is provided with a preparation of active compound at the desired concentration for consumption.
After the desired time the effect in % is determined. 100% means that all of the aphids have been killed; 0% means that no aphids have been killed.

[4] = test system: Diabrotica undecimpunctata eggs; assay: Diabrotica undecimpunctata test; format: in vivo; conditions: 300 ppm; eggs treated
Description: as §2
The Diabrotica undecimpunctata eggs are treated with a preparation of active compound at the desired concentration.
(§3) After the desired time the effect in % is determined. 100% means that all of the eggs/larvae have been killed; 0% means that no eggs/larvae have been killed.

Aedes aegypti larvae = assay: Aedes aegypti test; format: in vivo; conditions: 30 ppm; larvae treated
Description: as §2
The Aedes aegypti larvae are treated with a preparation of active compound at the desired concentration.
After the desired time the effect in % is determined. 100% means that all of the Aedes aegypti have been killed; 0% means that no Aedes aegypti have been killed.

Heliothis virescens eggs = assay: Heliothis virescens test; format: in vivo; conditions: 300 ppm; eggs treated
Description: as §2
The Heliothis virescens eggs are treated with a preparation of active compound at the desired concentration.
as §3

CNC(=O)c1cc(Cl)cc(C)c1NC(=O)c1cc(Cn2cc(C(F)(F)C(F)(F)F)c(C(F)(F)C(F)(F)F)n2)nn1-c1ncccc1Cl [I-1-3]
logP [1]: 4.39
Kill level after 7 d in % ([2]; 0.8 g/ha): 100%
Kill level after 7 d in % ([2]; 100 g/ha): 100%
Kill level after 7 d in % [3]: 98%

CNC(=O)c1cc(Cl)cc(C)c1NC(=O)c1cc(Cn2cc(Cl)cn2)nn1-c1ncccc1Cl [I-1-4]
logP [1]: 2.54
Kill level after 7 d in % ([2]; 100 g/ha): 100%
Kill level after 7 d in % [3]: 95%

Cc1cc(Cl)cc(C(=O)NC(C)C)c1NC(=O)c1cc(Cn2cc(I)c(C(F)(F)C(F)(F)F)n2)nn1-c1ncccc1Cl [I-1-14]
Kill level after 6-7 d in % (Myzus persicae): 100%
logP [1]: 4.29
Kill level after 7 d in % ([2]; 100 g/ha): 100%
Kill level after 2-5 d in % [4]: 100%
Kill level after 2-4 d in % (Aedes aegypti larvae): 100%
Kill level after 6-7 d in % (Heliothis virescens eggs): 100%

Cc1cc(Cl)cc(C(=O)NC(C)C)c1NC(=O)c1cc(Cn2cc(Cl)c(C(F)(F)F)n2)nn1-c1ncccc1Cl [I-1-15]
Kill level after 6-7 d in % (Myzus persicae): 100%
logP [1]: 3.85
Kill level after 7 d in % ([2]; 100 g/ha): 100%
Kill level after 2-5 d in % [4]: 100%
Kill level after 2-4 d in % (Aedes aegypti larvae): 100%
Kill level after 6-7 d in % (Heliothis virescens eggs): 100%

Cc1cc(Br)cc(C(=O)NC(C)C)c1NC(=O)c1cc(Cn2nc(C(F)(F)F)nc2C(F)(F)F)nn1-c1ncccc1Cl [I-1-22]
logP [1]: 3.91
Kill level after 7 d in % ([2]; 4 g/ha): 100%
Kill level after 7 d in % ([2]; 100 g/ha): 100%
Kill level after 7 d in % [3]: 98%
